Patent US20240226107A1, “UBIQUITIN-SPECIFIC PROTEASE 1 (USP1) INHIBITOR” (SIMCERE ZAIMING PHARMACEUTICAL CO., LTD., priority 2021, published 2024)

Each compound was assayed against USP1 (Recombinant Human His6-USP1/His6-UAF1 Complex Protein) (Homo sapiens (Human), UniProt O94782) (assay: In vitro activity assay for USP1 (Ub-CHOP2-Reporter deubiquitination assay)). Conditions: 0.5 h incubation at room temperature, read-out: In vitro inhibitory activity of USP1 IC50.
Assay type: biochemical
Protocol: The assay kit (Ub-CHOP2-Reporter Deubiquitination Assay Kit) was purchased from Lifesensors, with Cat. No. of PR1101. The assay kit was subpackaged and stored at −80° C.
Each compound to be tested was dissolved with DMSO to 10 mM. The compound and pure DMSO (with a total volume of 50 nL) were loaded to each well of the 384-well plate by using an ECHO instrument to obtain gradient-diluted sample concentrations at different ratios. The enzyme was diluted with a freshly prepared reaction solution (20 mM Tris-HCl (pH 8.0), 2 mM CaCl2, 2 mM β-mercaptoethanol, 0.05% CHAPS, and ddH2O). To each well, 5 μL of diluted enzyme reaction solution was added, then the plate was centrifuged and oscillated to mix the enzyme and the compound, and the mixture was centrifuged again and placed on ice. The kit reporter system and the substrate were diluted with the reaction solution, then 5 μL of diluted liquid was added to each well, and mixed by centrifugation. The mixture was incubated at room temperature for 0.5 h. […] The inhibitory activity (IC50 values) of the compound on enzyme activity was calculated by using a four-parameter Logistic Model. […] A, B, C, and D are four parameters.

Chain of USP1 (Recombinant Human His6-USP1/His6-UAF1 Complex Protein) (O94782 whole entry): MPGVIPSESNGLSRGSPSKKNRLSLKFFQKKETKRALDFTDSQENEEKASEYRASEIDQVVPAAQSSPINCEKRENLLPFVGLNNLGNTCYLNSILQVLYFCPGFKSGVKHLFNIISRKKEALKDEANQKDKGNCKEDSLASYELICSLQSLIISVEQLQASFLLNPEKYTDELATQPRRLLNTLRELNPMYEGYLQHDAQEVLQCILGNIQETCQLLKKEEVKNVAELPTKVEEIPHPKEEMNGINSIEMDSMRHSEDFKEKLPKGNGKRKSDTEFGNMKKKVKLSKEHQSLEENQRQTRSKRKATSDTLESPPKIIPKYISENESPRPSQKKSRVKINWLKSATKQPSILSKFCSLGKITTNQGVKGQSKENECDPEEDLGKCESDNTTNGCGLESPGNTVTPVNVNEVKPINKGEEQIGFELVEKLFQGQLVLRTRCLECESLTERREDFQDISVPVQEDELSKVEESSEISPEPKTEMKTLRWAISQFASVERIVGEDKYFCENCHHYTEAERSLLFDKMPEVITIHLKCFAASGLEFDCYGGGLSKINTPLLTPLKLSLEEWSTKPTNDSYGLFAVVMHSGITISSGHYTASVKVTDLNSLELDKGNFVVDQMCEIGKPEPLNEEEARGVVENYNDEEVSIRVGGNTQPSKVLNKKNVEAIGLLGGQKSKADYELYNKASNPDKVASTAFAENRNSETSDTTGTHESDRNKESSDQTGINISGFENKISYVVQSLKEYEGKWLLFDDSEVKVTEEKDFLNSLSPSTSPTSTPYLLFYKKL
Chain of USP1 (Recombinant Human His6-USP1/His6-UAF1 Complex Protein) (Q8TAF3 whole entry partner): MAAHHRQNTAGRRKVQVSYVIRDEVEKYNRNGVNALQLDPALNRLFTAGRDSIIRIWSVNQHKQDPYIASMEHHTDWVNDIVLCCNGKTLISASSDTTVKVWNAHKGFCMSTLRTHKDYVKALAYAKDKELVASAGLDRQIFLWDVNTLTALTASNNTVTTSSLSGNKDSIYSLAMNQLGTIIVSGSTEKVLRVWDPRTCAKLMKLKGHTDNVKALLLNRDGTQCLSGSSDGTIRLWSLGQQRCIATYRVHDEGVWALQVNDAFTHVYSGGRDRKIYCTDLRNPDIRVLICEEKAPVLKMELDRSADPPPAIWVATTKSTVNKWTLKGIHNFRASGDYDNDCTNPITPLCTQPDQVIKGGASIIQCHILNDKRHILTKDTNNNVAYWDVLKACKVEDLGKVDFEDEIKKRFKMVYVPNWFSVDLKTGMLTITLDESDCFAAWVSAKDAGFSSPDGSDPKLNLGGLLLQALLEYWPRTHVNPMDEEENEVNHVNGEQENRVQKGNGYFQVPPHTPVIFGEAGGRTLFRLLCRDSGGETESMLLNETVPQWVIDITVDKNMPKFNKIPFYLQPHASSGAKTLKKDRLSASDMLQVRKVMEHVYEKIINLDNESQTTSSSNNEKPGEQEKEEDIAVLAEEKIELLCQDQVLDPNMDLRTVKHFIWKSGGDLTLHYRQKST

| Compound | IC50 |
| --- | --- |
| CC(C)c1ncccc1-c1ncc2c(n1)N(Cc1ccc(-c3nc(C(F)(F)F)cn3C)cc1)CC(=O)N2 [Compound 4, 2-(2-isopropylpyridin-3-yl)-8-(4-(1-methyl-4-(trifluoromethyl)-1H-imidazol-2-yl)benzyl)-7,8-dihydropteridin-6(5H)-one] | 43.3 nM |
| COc1ncnc(C2CC2)c1-c1ncc2c(n1)N(Cc1ccc(-c3nc(C(F)(F)F)cn3C)c(F)c1)C(=O)OC21CC1 [Compound 51, 7′-(4-cyclopropyl-6-methoxypyrimidin-5-yl)-1′-(3-fluoro-4-(1-methyl-4-(trifluoromethyl)-1H-imidazol-2-yl)benzyl)spiro[cyclopropane-1,4′-pyrimido[4,5-d][1,3]oxazine]-2′(1′H)-one] | 13.8 nM |
| COc1ncnc(C2CC2)c1-c1ncc2c(n1)N(Cc1ccc(-n3nc(C(F)(F)F)cc3C)cc1)C(=O)OC21CCC1 [Compound 55, 7′-(4-cyclopropyl-6-methoxypyrimidin-5-yl)-1′-(4-(5-methyl-3-(trifluoromethyl)-1H-pyrazol-1-yl)benzyl)spiro[cyclobutane-1,4′-pyrimido[4,5-d][1,3]oxazin]-2′(1′H)-one] | 8.7 nM |
| C#CC1(C)OC(=O)N(Cc2ccc(-c3nc(C(F)(F)F)cn3C)c(F)c2)c2nc(-c3c(OC)ncnc3C3CC3)ncc21 (stereo not shown) [Compound 59, 7-(4-cyclopropyl-6-methoxypyrimidin-5-yl)-4-ethynyl-1-(3-fluoro-4-(1-methyl-4-(trifluoromethyl)-1H-imidazol-2-yl)benzyl)-4-methyl-1,4-dihydro-2H-pyrimido[4,5-d][1,3]oxazin-2-one] | 13.5 nM |
| COc1ncnc(C2CC2)c1-c1ncc2c(n1)N(Cc1ccc(-c3nc(C(F)(F)F)cn3C)c(C(F)(F)F)c1)CCO2 [Compound 64] | 22.7 nM |

Continued by falling IC50, values first:

| IC50 | Compound |
| --- | --- |
| 45.9 nM | COc1ncnc(C2CC2)c1-c1ncc2c(n1)N(Cc1ccc3c(c1)CCCn1cc(C(F)(F)F)nc1-3)CC(=O)N2C(C)C [Compound 47, 2-(4-cyclopropyl-6-methoxypyrimidin-5-yl)-5-isopropyl-8-((2-(trifluoromethyl)-6,7-dihydro-5H-benzo[c]imidazo[1,2-a]azepin-9-yl)methyl)-7,8-dihydropteridin-6(5H)-one] |
| 33.2 nM | COc1ncnc(C2CC2)c1-c1ncc2c(n1)N(Cc1ccc(-c3nc(C(F)(F)F)cn3C)c(F)c1)C(=O)OC2(C)C [Compound 49, 7-(4-cyclopropyl-6-methoxypyrimidin-5-yl)-4,4-dimethyl-1-(3-fluoro-4-(1-methyl-4-(trifluoromethyl)-1H-imidazol-2-yl)benzyl)-1,4-dihydro-2H-pyrimido[4,5-d][1,3]oxazin-2-one] |
| 26.1 nM | COc1ncnc(C2CC2)c1-c1ncc2c(n1)N(Cc1ccc3c(c1)CCCn1cc(C(F)(F)F)nc1-3)CC(=O)N2C1CC1 [Compound 48, 5-cyclopropyl-2-(4-cyclopropyl-6-methoxypyrimidin-5-yl)-8-((2-(trifluoromethyl)-6,7-dihydro-5H-benzo[c]imidazo[1,2-a]azepin-9-yl)methyl)-7,8-dihydropteridin-6-(5H)-one] |
| 23.2 nM | COc1ncnc(C2CC2)c1-c1ncc2c(n1)N(Cc1ccc(-n3nc(C(F)(F)F)cc3C)cc1)C(=O)OC21COC1 [Compound 54, 7′-(4-cyclopropyl-6-methoxypyrimidin-5-yl)-1′-(4-(5-methyl-3-(trifluoromethyl)-1H-pyrazol-1-yl)benzyl)spiro[oxetane-3,4′-pyrimido[4,5-d][1,3]oxazine]-2′(1′H)-one] |
| 8.9 nM | COc1ncnc(C2CC2)c1-c1ncc2c(n1)N(Cc1ccc(-n3nc(C(F)(F)F)cc3C)cc1)C(=O)OC21CC1 [Compound 53, 7′-(4-cyclopropyl-6-methoxypyrimidin-5-yl)-1′-(4-(5-methyl-3-(trifluoromethyl)-1H-pyrazol-1-yl)benzyl)spiro[cyclopropane-1,4′-pyrimido[4,5-d][1,3]oxazine]-2′(1′H)-one] |
